Experimental data reported in US20260325500A1, “METHODS AND COMPOSITIONS FOR TREATING ACUTE STRESS DISORDER” (BioXcel Therapeutics, Inc., priority 2022, published 2026).
“Also recorded” adds a separate entry of the source. Structures can show the parent of a compound that is named as a salt.

Key:
[1] = system: motor activity (locomotion) and sedation behavior of male Swiss albino mice; experiment: Open field test, motor activity (locomotion) and sedation (Example 7); assay type: in vivo; conditions: i.p.
Protocol: Rationale: The spontaneous locomotor activity in terms of total distance traveled is measured in open field test. Comparatively lower distance traveled would indicate either less motor activity or sedation.
Animal groups: Swiss albino male mice (6-7 weeks old; 25-40 g weight) were distributed in 10 different experimental groups with 12 […] per group as illustrated in Table
Study drugs: The test substances (Dexmedetomidine hydrochloride and latrepirdine dihydrochloride hydrate) were dissolved in 0.9% normal saline which served as the vehicle.
Study design and dosing: Mice were brought to the laboratory and allowed to acclimatize to the environment for at least 7 days. The open field test was done in lighting conditions of 40 lux light. The mice were dosed as per the grouping in Table 10. After a post dose interval of 60 minutes, 4 mice from a group were placed in the open field and the movement was tracked for a period of 30 minutes. Once the trial was over the mice were removed from the open field and the arena was cleaned. Following this, next set of 4 mice were placed in the arena and tracked.
Statistical analysis: The distance travelled for a period of 30 minutes was analyzed in bins of 5 minutes and was compared with that of the vehicle group using one-way ANOVA followed by Dunnett's test. All statistical analyses were performed using Graph pad prism software package (Version 7 or Higher) and p value below 0.05 was considered as significant.

[2] = system: rat forced swim test model (depressive-like behavior); experiment: Forced swim test in dark phase (Example 4); assay type: in vivo, Sprague Dawley rats; conditions: i.m.
From the text: Animal groups: Male Sprague Dawley (SD) rats (8-10 weeks old) were grouped housed 2 per cage in standard animal cages with facilities for pelleted food and drinking water in polycarbonate bottle with stainless steel sipper tubes. During the experimental period, animals were housed in a single experimental room. Rats were distributed in 7 different experimental groups with 9-12 rats per group as illustrated in Table 8. Animals were distributed to different groups based on body weight data. Each experimental group was also coded so that the experimenter became unaware of the true experimental group at the time FST trial.
Animals were housed in an environment-controlled room at 22±3° C. and relative humidity of 30 to 70 percent. During the study, 12/12 light/dark cycles were maintained. Lights of the acclimatization area were switched off at 06:00 PM. All experiments were carried out at ambient temperature under dark phase of lighting (between 06:00 PM to 06:00 AM). Adequate fresh air supply of 12-15 air changes/hour was maintained in the experimental room. The maximum and minimum temperature and relative humidity in the experimental rooms was recorded once daily. The relative humidity in the experimental room was calculated daily from dry and wet bulb temperature recordings.
Swim 1 was carried out between 18:30 to 21:30.
Swim 2 was carried out between 19:30 to 21:30. Animals were administered test compounds from 18:30 onwards in staggered manner 60 minutes before FST 2.
Forced swim test was carried out in dark phase
On Day 1, animals were subjected to forced swim test training for 15 minutes (Swim 1) and on Day 2, Swim 2 was carried out post treatment.
On day 2 animals were dosed with respective treatment 60 min prior to performing FST.
Forced swim test (Swim 2) was scored manually with no video recording.
Forced swim test (FST), was used to study the depressive-like behavior in rodents. The test was carried out in transparent cylindrical glass containers measuring 46 cm in height and 20 cm in diameter.
There were 2 swim sessions, 24 h apart. The first session, Swim 1 was the pretest/training stage (15 min) and the second session, Swim 2, was the test stage (8 min).
In swim 2, first 1-minute data was excluded from analysis and rest 7 minutes data was considered. In 7 minutes, data, it was divided 5 minutes and 2 minute.
Twenty-four hours after the start of Swim 1, the test swim (Swim 2) was carried out.
Rat was placed in the water-filled cylinder for 8 min (Swim 2).
The duration of time spent immobile, swimming, and climbing was observed by an observer blind to the treatment group.
Immobility period: A rat was judged to be immobile when it remained floating in the water without struggling and was making only those movements necessary to keep its head above water.
Statistical analysis: One Way ANOVA, Dunnet's multiple comparison test was applied with respect to vehicle saline and Tukey's multiple comparison test was applied to compare the data in between the groups using GraphPad Prism version 9 software.

[3] = system: Yohimbine-induced noradrenergic mediated hyperarousal in Wistar rats; experiment: Elevated plus maze, yohimbine-induced noradrenergic mediated hyperarousal (Example 2); assay type: in vivo; conditions: 10 mg/kg, i.m., 60 min prior; yohimbine 2.5 mg/kg i.p.
From the text: Background: Yohimbine is an alpha 2-adrenergic receptor antagonist reported to trigger panic attacks in healthy volunteers and to exacerbate symptoms in patients with panic disorder (Charney et al., 1992 Acta Psychiatr Scand., Vol. 86 (4): 273-282). Peripheral administration of Yohimbine causes noradrenergic mediated hyperarousal in rats as assessed by the EPM paradigm.
Rationale: The drug yohimbine is a natural product used to test a specific pathway, noradrenergic-mediated hyper-arousal. It is well established that yohimbine is an alpha2-adrenergic receptor antagonist and activates the locus coeruleus (LC) and increases noradrenergic signaling (the opposite of alpha2-adrenergic agonists like dexmedetomidine and clonidine). Increased LC activity and noradrenergic signaling makes animals anxious and agitated which can be measured by using the elevated plus maze. In the elevated plus maze, rodents were in the closed arms and explored the open arms depending on their anxiety and agitation (rats and mice normally explore their environments extensively when calm). […] This behavior is correlated to increased level of anxiety caused by noradrenergic mediated hyperarousal.
Animal groups: Male: Wistar rats were used in this study and were randomly divided to different experimental groups (12 animals per group).
Study drugs: Four test drugs with different mechanisms of action linked to agitation were chosen to find drugs that are effective in reducing yohimbine-induced agitation: (1) Fluvoxamine (selective serotonin reuptake inhibitor) (2) Dextromethorphan (modulator of NMDA signals) (3) Diazepam (modulator of gamma-aminobutyric acid (GABA) as a positive control) and (4) Latrepirdine (complex pharmacology).
The test drugs were procured from Sigma or Tocris. dextromethorphan from Sigma Aldrich, Cat No. D9684; latrepirdine from Sigma Aldrich, Cat No. D6196 or Tocris Cat No. 3201 diazepam and fluvoxamine Sigma Aldrich, Cat No. F2802 or Tocris, Cat No. 1033. All these test drugs were formulated in sufficient quantity in 0.9% saline except for fluvoxamine, which was formulated in 30% ethanol in 0.9% saline.
Apparatus: Elevated Plus Maze (EPM) was used (FIG. 1). The maze consisted of two closed arms and two open arms forming a cross, with a square center platform. All visible surfaces were made of black acrylic. Each arm of the maze was placed on a support column above the floor. Antistatic black vinyl curtains used for surrounding the EPM to make an enclosure.
Study design and dosing: Yohimbine was administered by intraperitoneal injection (i.p.) at a dose of 2.5 mg/kg (30 minutes prior to study) to induce agitation and the effects were assessed 30 minutes after yohimbine injection by measuring the number of open arm entries and exploration time in the EPM. The test drugs fluvoxamine, dextromethorphan and latrepirdine dihydrochloride hydrate were administered through intramuscular route and, diazepam through intraperitoneal route into the hindleg thigh muscle of rats (60 minutes prior to study; 30 minutes prior to yohimbine administration). Diazepam was injected 30 minutes intraperitonially prior to the assay i.e. along with yohimbine administration. The study design is illustrated in FIG. 2 and table 5.
After the test drug administration, the rat was placed on the platform opposite a closed arm. The number of entries and the time spent in each arm were recorded during a 5 min period. The animal was considered as entered in arm when it placed its four paws into the arm.
Statistical analysis: Analysis of variance (ANOVA) was performed on the result data. Fisher's PLSD was used for pairwise comparisons and p value≤0.05 was considered significant.

In the case of `Cc1cccc([C@H](C)c2cnc[nH]2)c1C` [dexmedetomidine hydrochloride], the distance traveled ([1]; 4 μg/kg, 10 μg/kg and 20 μg/kg) is reported as “did not show any significant reduction in distance traveled”, the distance traveled ([1]; 30 μg/kg) is reported as “significant reduction in distance traveled” and the climbing time ([2]; 1 μg/kg, versus vehicle saline) is reported as “significantly increased”. For the same compound, the “increase in swimming time” value ([2]; 1 μg/kg, versus vehicle saline) was ~ 1.6%, the swimming time ([2]; 5 μg/kg) was “significantly increased” and the immobility time ([2]; 1 and 5 μg/kg, versus vehicle saline) was “significantly decreased”.
For `COc1ccc2c(c1)[C@]13CCCC[C@@H]1[C@H](C2)N(C)CC3` [dextromethorphan], the “reduction of noradrenergic mediated hyperarousal (open arm entries and time spent)” value [3] was “ineffective; also recorded: no effect”.
In the case of `COCCCC/C(=N\OCCN)c1ccc(C(F)(F)F)cc1` [fluvoxamine], the “reduction of noradrenergic mediated hyperarousal (open arm entries and time spent)” value [3] is reported as “ineffective; also recorded: no effect”.
